PMC12406681 (Antimicrobial Agents and Chemotherapy, 2025)
Where “and” joins values, the source holds several entries; their conditions need not be identical. Equal values may be shown once. Read-outs that look alike come from different tables or passages of the source.

Tests used:
CEN of orthobunyaviruses = tested on: CEN of orthobunyaviruses; set-up: method as in PMID 32766680, PMID 38656310; conditions: cited from earlier work
[1] = Cell viability assay (MTT), uninfected SH-SY5Y cells; format: cell-based; conditions: human, MTT at 3 dpi, mean ± SD
Description: (§1) CPE-based antiviral activity and cell viability assays were conducted as previously reported ([23]), with several modifications. Vero and SH-SY5Y cells were treated with serially diluted compounds in minimum essential medium (MEM) containing 2% FBS. In the antiviral evaluation, the cells were infected with LACV (40–80 plaque-forming unit [PFU]/well for Vero and 300–4,000 PFU/well for SH-SY5Y cells). In the cell viability assays, the cells treated with the compounds were cultured in the absence of viral infection. After 2 or 3 days of culture, the cells were stained with 3-(4,5-dimethylthiazol-2-yl)-2,5-diphenyltetrazolium bromide (MTT). The antiviral activity (50% effective concentration values, EC50) was calculated using Prism version 9.5.1 (GraphPad, La Jolla, CA, USA) using the four-parameter logistic method. Non-infected and non-treated cells were defined as the 100% inhibition control, while LACV-infected and non-treated cells were defined as the 0% inhibition control. Cell viability (50% cytotoxicity concentration values, CC50) was calculated using the MTT assay. Non-treated control cells were defined as the 100% cell viability control, while wells containing culture medium without cells were defined as the 0% cell viability control. Selective Index (SI50) was calculated as the ratio of CC50 to EC50 (CC50/EC50).

LACV [2] = assay: microbe, parasite or virus in culture; format: cell-based, La Crosse virus
[3] = tested on: Bunyaviruses, including LACV; set-up: method as in PMID 36037386; conditions: cited from earlier work
[4] = format: in vivo; conditions: uninfected mice; s.c. once daily for 7 days
LACV [5] = format: cell-based, La Crosse virus
LACV passage control WT [6] = assay: microbe, parasite or virus in culture; format: cell-based; conditions: La Crosse virus, SH-SY5Y
LACV [7] = assay: microbe, parasite or virus in culture; format: cell-based, La Crosse virus; remark: listed apart in the source
[8] = Cell viability assay (MTT), uninfected Vero cells; format: cell-based; conditions: African green monkey, mean ± SD
Description: as §1

LACV passage control WT [9] = assay: microbe, parasite or virus in culture; format: cell-based; conditions: La Crosse virus, Vero

Structure (SMILES) | Binding to CEN and inhibition of enzymatic activity (CEN of orthobunyaviruses) | CC50 at 3 days [1] [µM] | EC50 lower than for T-705 and RBV (LACV [2]) | Inhibition of LACV-induced cell death compared with other CEN inhibitors (LACV [2]) | Susceptibility of bunyaviruses among the four CEN inhibitors [3] | Body weight changes versus vehicle-treated mice [4] | Viral RNA expression, entry-stage treatment (LACV [5]) | EC50 (LACV passage control WT [6]) [µM] | Antiviral activity compared with other CEN inhibitors (LACV [7]) | EC50 (LACV [7]) | EC50 (LACV [7]; La Crosse virus, SH-SY5Y) [µM] | CC50 [8] [µM] | EC50 (LACV passage control WT [9]) [µM] | EC50 (LACV [2]; La Crosse virus, Vero) [µM] | EC50 (LACV [2]) [µM]
O=C1c2c(O)c(=O)ccn2N([C@@H]2c3ccccc3SCc3c2ccc(F)c3F)[C@@H]2COCCN12 [BXA, baloxavir acid] | binds to the CEN of orthobunyaviruses and inhibits its enzymatic activity | – | – | – | – | – | – | – | – | – | – | – | – | – | –
CC(C)N1CN(C2c3ccccc3CCc3ccccc32)n2cc(C(=O)O)c(=O)c(O)c2C1=O [CAPCA-1, carbamoyl pyridone carboxylic acid (CAPCA)-1] | – | > 50 | more than 50 fold | inhibited LACV-induced cell death at lower concentrations than the other CEN inhibitors | most susceptible to CAPCA-1 | No significant differences in body weight changes | no inhibitory effect | 0.65 ± 0.05 | antiviral activity comparable to that of CAPCA-4 and demonstrated higher activity than CAPCA-2, -3, and -5 | 0.69 µM and 0.95 µM | < 1 | > 50 | 0.79 ± 0.39 | – | –
NC(=O)c1ncn([C@@H]2O[C@H](CO)[C@@H](O)[C@H]2O)n1 [RBV, Ribavirin, reference compound] | – | 121 ± 7.61 | – | – | – | – | – | – | – | – | > 100 | 82.1 ± 28.4 | – | > 100 | –
NC(=O)c1nc(F)c[nH]c1=O [T-705, favipiravir, reference compound] | – | > 200 | – | – | – | – | no inhibitory effect | – | – | – | > 100 | 117 ± 24.7 | 43.8 ± 11.5 | 33.9 ± 5.29 | 37.8 ± 3.96
